US9555039B2, “Piperidine derivatives and compositions for the inhibition of nicotinamide phosphoribosyltransferase (NAMPT)” (Forma TM, LLC., priority 2011, dated 2017)

Key:
[1] = target: T1, Recombinant His-tagged NAMPT (Homo sapiens, UniProt P43490); assay: Biochemical inhibition assay: NAMPT enzymatic reaction, NMN quantified by mass spectrometry; conditions: 33 nM NAMPT, 1 μM NAM, 100 μM PRPP, 2.5 mM ATP, 30 minutes at room temperature; read-out: Biochem IC50
T1 construct: His; host or cells: E. coli
T1 sequence (P43490 whole entry): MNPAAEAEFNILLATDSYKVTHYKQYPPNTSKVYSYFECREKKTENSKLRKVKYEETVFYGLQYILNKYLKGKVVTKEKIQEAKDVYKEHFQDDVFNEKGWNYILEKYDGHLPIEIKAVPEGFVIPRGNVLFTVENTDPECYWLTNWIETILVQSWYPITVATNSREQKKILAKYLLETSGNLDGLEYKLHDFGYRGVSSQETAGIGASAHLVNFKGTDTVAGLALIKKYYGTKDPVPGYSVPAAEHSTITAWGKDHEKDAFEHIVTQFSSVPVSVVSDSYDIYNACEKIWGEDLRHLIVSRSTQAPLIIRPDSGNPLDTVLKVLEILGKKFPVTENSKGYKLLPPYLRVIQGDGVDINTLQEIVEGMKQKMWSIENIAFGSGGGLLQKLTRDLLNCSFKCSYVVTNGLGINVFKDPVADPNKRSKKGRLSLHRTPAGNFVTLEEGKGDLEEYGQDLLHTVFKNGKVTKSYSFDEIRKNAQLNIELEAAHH
Experimental: Biochemical Inhibition Assay
NAMPT Protein Purification
Recombinant His-tagged NAMPT was produced in E. coli cells, purified over a Ni column, and further purified over a size-exclusion column by XTAL Biostructures.
The NAMPT Enzymatic Reaction
The NAMPT enzymatic reactions were carried out in Buffer A (50 mM Hepes pH 7.5, 50 mM NaCl, 5 mM MgCl2, and 1 mM THP) in 96-well V-bottom plates. The compound titrations were performed in a separate dilution plate by serially diluting the compounds in DMSO to make a 100× stock. […] The compound and enzyme mix was incubated for 15 minutes at room temperature, then 10 μL of 10× substrate and co-factors in Buffer A were added to the test well to make a final concentration of 1 μM NAM, 100 μM 5-Phospho-D-ribose 1-diphosphate (PRPP), and 2.5 mM Adenosine 5′-triphosphate (ATP). The reaction was allowed to proceed for 30 minutes at room temperature, then was quenched with the addition of 11 μL of a solution of formic acid and L-Cystathionine to make a final concentration of 1% formic acid and 10 μM L-Cystathionine. Background and signal strength was determined by addition (or non-addition) of a serial dilution of NMN to a pre-quenched enzyme and cofactor mix.
A mass spectrometry-based assay was used to measure the Nampt reaction product (NMN) and the internal control (L-Cystathionine). NMN and L-Cystathionine were detected using the services of Biocius Lifesciences with the RapidFire system. In short, the NMN and L-Cystathionine are bound to a graphitic carbon cartridge in 0.1% formic acid, eluted in 30% acetonitrile buffer, and injected into a Sciex 4000 mass spectrometer. The components of the sample were ionized with electrospray ionization and the positive ions were detected. […] The fragments are quantified and the analyzed by the following method.
First the NMN signal is normalized to the L-Cystathionine signal by dividing the NMN signal by the L-Cystathionine signal for each well. The signal from the background wells are averaged and subtracted from the test plates.
Wherein x denotes the average signal of the compound treated wells and y denotes the average signal of the DMSO treated wells.
IC50s are Determined Using Excel and this Formula.
Wherein X denotes the compound concentration 1, Y denotes the compound concentration 2, XX denotes the % inhibition at compound concentration 1 (X), and YY denotes the % inhibition at compound concentration 2 (Y).

A2780 cells = assay: In-vitro cell proliferation assay (SRB, 72 hours); format: cell-based; conditions: Homo sapiens, sulforhodamine B (SRB) assay
Experimental: In-Vitro Cell Proliferation Assay
After overnight incubation at 37° C. and 5% CO2, the compound titrations were performed in a separate dilution plate by serially diluting the compounds in DMSO to make a 1000× stock. The compounds were then further diluted to 10× final concentration in culture media, whereupon 20 μL of each dilution was added to the plated cells with controls (e.g. DMSO and blank) to make a final volume of 200 μL. The final DMSO concentration in each well was 0.1%. The plates were then incubated for 72 hours at 37° C. in a 5% CO2 incubator. The number of viable cells was then assessed using sulforhodamine B (SRB) assay. Cells were fixed at 4° C. for 1 hour with the addition of 50 μL 30% trichloroacetic acid (TCA) to make a final concentration of 6% TCA. The plates were washed four times with H2O and allowed to dry for at least 1 hour, whereupon 100 μL of a 4% SRB in 1% acetic acid solution was added to each well and incubated at room temperature for at least 30 minutes. The plates were then washed three times with 1% acetic acid, dried, and treated with 100 μL of 10 mM Tris-Base solution. The plates were then read in a microplate reader at an absorbance of 570 nm. Background was generated on a separate plate with media only.
Method for Determining % Inhibition
First, the signals from the background plate are averaged, then the background was subtracted from the test plates.
wherein x denotes the average signal of the compound-treated cells and y denotes the average signal of the DMSO-treated cells.
wherein X denotes the compound concentration 1, Y denotes the compound concentration 2, XX denotes the % inhibition at compound concentration 1 (X), and YY denotes the % inhibition at compound concentration 2 (Y).

Cn1cc(CC(=O)N2CCC(CCCCNC(=O)c3ccc4nccn4c3)CC2)c2ccccc21 [N-(4-{1-[2-(1-methyl-1H-indol-3-yl)acetyl]piperidin-4-yl}butyl)imidazo[1,2-a]pyridine-6-carboxamide]
IC50 [1]: 29.5 nM | IC50 (A2780 cells): 21.3 nM

Cn1cc(CC(=O)N2CCC(CCCCNC(=O)c3cc4ccncc4s3)CC2)c2ccccc21 [N-(4-{1-[2-(1-methyl-1H-indol-3-yl)acetyl]piperidin-4-yl}butyl)thieno[2,3-c]pyridine-2-carboxamide]
IC50 [1]: 11.6 nM | IC50 (A2780 cells): 24 nM

Cc1nc(CC(=O)N2CCC(CCCCNC(=O)c3cc4cnccc4[nH]3)CC2)cs1 [N-(4-{1-[2-(2-methyl-1,3-thiazol-4-yl)acetyl]piperidin-4-yl}butyl)-1H-pyrrolo[3,2-c]pyridine-2-carboxamide]
IC50 [1]: 49.4 nM | IC50 (A2780 cells): 13.9 nM

Cc1nc(CC(=O)N2CCC(CCCCNC(=O)c3ccc4nccn4c3)CC2)cs1 [N-(4-{1-[2-(2-methyl-1,3-thiazol-4-yl)acetyl]piperidin-4-yl}butyl)imidazo[1,2-a]pyridine-6-carboxamide]
IC50 [1]: 18.9 nM | IC50 (A2780 cells): 28 nM

Cc1nc(CC(=O)N2CCC(CCCCNC(=O)c3cc4ccncc4s3)CC2)cs1 [N-(4-{1-[2-(2-methyl-1,3-thiazol-4-yl)acetyl]piperidin-4-yl}butyl)thieno[2,3-c]pyridine-2-carboxamide]
IC50 [1]: 13.5 nM | IC50 (A2780 cells): 28.2 nM

O=C(NCCCCC1CCN(S(=O)(=O)c2ccc(C(F)(F)F)nc2)CC1)c1cc2cnccc2[nH]1 [N-(4-{1-[6-(trifluoromethyl)pyridine-3-sulfonyl]piperidin-4-yl}butyl)-1H-pyrrolo[3,2-c]pyridine-2-carboxamide]
IC50 [1]: 81.5 nM | IC50 (A2780 cells): 29.8 nM

O=C(NCCCCC1CCN(C(=O)c2ccc3ncsc3c2)CC1)c1cc2cnccc2[nH]1 [N-(4-{1-[(1,3-benzothiazol-6-yl)carbonyl]piperidin-4-yl}butyl)-1H-pyrrolo[3,2-c]pyridine-2-carboxamide]
IC50 [1]: 72.7 nM | IC50 (A2780 cells): 12.6 nM

O=C(NCCCCC1CCN(C(=O)c2ccc3ncsc3c2)CC1)c1ccc2nccn2c1 [N-(4-{1-[(1,3-benzothiazol-6-yl)carbonyl]piperidin-4-yl}butyl)imidazo[1,2-a]pyridine-6-carboxamide]
IC50 [1]: 23.7 nM | IC50 (A2780 cells): 39.3 nM

O=C(NCCCCC1CCN(C(=O)c2ccc3ncsc3c2)CC1)c1cc2ccncc2s1 [N-(4-{1-[(1,3-benzothiazol-6-yl)carbonyl]piperidin-4-yl}butyl)thieno[2,3-c]pyridine-2-carboxamide]
IC50 [1]: 32.3 nM | IC50 (A2780 cells): 35.4 nM

CC(=O)N1CCC(C(=O)N2CCC(CCCCNC(=O)c3cc4cnccc4[nH]3)CC2)CC1 [N-(4-{1-[(1-acetylpiperidin-4-yl)carbonyl]piperidin-4-yl}butyl)-1H-pyrrolo[3,2-c]pyridine-2-carboxamide]
IC50 [1]: 134 nM | IC50 (A2780 cells): 23.9 nM

CC(=O)N1CCC(C(=O)N2CCC(CCCCNC(=O)c3ccc4nccn4c3)CC2)CC1 [N-(4-{1-[(1-acetylpiperidin-4-yl)carbonyl]piperidin-4-yl}butyl)imidazo[1,2-a]pyridine-6-carboxamide]
IC50 [1]: 39.6 nM | IC50 (A2780 cells): 27.8 nM

O=C(NCCCCC1CCN(C(=O)c2cc3ccccc3s2)CC1)c1cc2cnccc2[nH]1 [N-(4-{1-[(1-benzothiophen-2-yl)carbonyl]piperidin-4-yl}butyl)-1H-pyrrolo[3,2-c]pyridine-2-carboxamide]
IC50 [1]: 124 nM | IC50 (A2780 cells): 69.9 nM

O=C(NCCCCC1CCN(C(=O)c2cc3ccccc3s2)CC1)c1ccc2nccn2c1 [N-(4-{1-[(1-benzothiophen-2-yl)carbonyl]piperidin-4-yl}butyl)imidazo[1,2-a]pyridine-6-carboxamide]
IC50 [1]: 25.8 nM | IC50 (A2780 cells): 71.8 nM

O=C(NCCCCC1CCN(C(=O)c2cc3ccccc3s2)CC1)c1cc2ccncc2s1 [N-(4-{1-[(1-benzothiophen-2-yl)carbonyl]piperidin-4-yl}butyl)thieno[2,3-c]pyridine-2-carboxamide]
IC50 [1]: 17.7 nM | IC50 (A2780 cells): 100 to 1000 nM

Cn1ccnc1C(=O)N1CCC(CCCCNC(=O)c2cc3cnccc3[nH]2)CC1 [N-(4-{1-[(1-methyl-1H-imidazol-2-yl)carbonyl]piperidin-4-yl}butyl)-1H-pyrrolo[3,2-c]pyridine-2-carboxamide]
IC50 [1]: 76.5 nM | IC50 (A2780 cells): 23.6 nM

Cn1cnc(C(=O)N2CCC(CCCCNC(=O)c3cc4cnccc4[nH]3)CC2)c1 [N-(4-{1-[(1-methyl-1H-imidazol-4-yl)carbonyl]piperidin-4-yl}butyl)-1H-pyrrolo[3,2-c]pyridine-2-carboxamide]
IC50 [1]: 93.7 nM | IC50 (A2780 cells): 55 nM

Cn1cnc(C(=O)N2CCC(CCCCNC(=O)c3ccc4nccn4c3)CC2)c1 [N-(4-{1-[(1-methyl-1H-imidazol-4-yl)carbonyl]piperidin-4-yl}butyl)imidazo[1,2-a]pyridine-6-carboxamide]
IC50 [1]: 56.7 nM | IC50 (A2780 cells): 107 nM

Cn1c(C(=O)N2CCC(CCCCNC(=O)c3cc4cnccc4[nH]3)CC2)cc2ccccc21 [N-(4-{1-[(1-methyl-1H-indol-2-yl)carbonyl]piperidin-4-yl}butyl)-1H-pyrrolo[3,2-c]pyridine-2-carboxamide]
IC50 [1]: 134 nM | IC50 (A2780 cells): 23.8 nM

Cn1c(C(=O)N2CCC(CCCCNC(=O)c3ccc4nccn4c3)CC2)cc2ccccc21 [N-(4-{1-[(1-methyl-1H-indol-2-yl)carbonyl]piperidin-4-yl}butyl)imidazo[1,2-a]pyridine-6-carboxamide]
IC50 [1]: 124 nM | IC50 (A2780 cells): 55.1 nM

Cn1c(C(=O)N2CCC(CCCCNC(=O)c3cc4ccncc4s3)CC2)cc2ccccc21 [N-(4-{1-[(1-methyl-1H-indol-2-yl)carbonyl]piperidin-4-yl}butyl)thieno[2,3-c]pyridine-2-carboxamide]
IC50 [1]: 65 nM | IC50 (A2780 cells): 100 to 1000 nM

O=C(NCCCCC1CCN(C(=O)c2cc3ccccc3[nH]2)CC1)c1cc2cnccc2[nH]1 [N-(4-{1-[(1H-indol-2-yl)carbonyl]piperidin-4-yl}butyl)-1H-pyrrolo[3,2-c]pyridine-2-carboxamide]
IC50 [1]: 125 nM | IC50 (A2780 cells): 60.3 nM

O=C(NCCCCC1CCN(C(=O)c2cc3ccccc3[nH]2)CC1)c1ccc2nccn2c1 [N-(4-{1-[(1H-indol-2-yl)carbonyl]piperidin-4-yl}butyl)imidazo[1,2-a]pyridine-6-carboxamide]
IC50 [1]: 61.6 nM | IC50 (A2780 cells): 100 to 1000 nM

O=C(NCCCCC1CCN(C(=O)c2cc3ccccc3[nH]2)CC1)c1cc2ccncc2s1 [N-(4-{1-[(1H-indol-2-yl)carbonyl]piperidin-4-yl}butyl)thieno[2,3-c]pyridine-2-carboxamide]
IC50 [1]: 33.5 nM | IC50 (A2780 cells): 100 to 1000 nM

O=C(NCCCCC1CCN(C(=O)c2ccc3[nH]ccc3c2)CC1)c1cc2cnccc2[nH]1 [N-(4-{1-[(1H-indol-5-yl)carbonyl]piperidin-4-yl}butyl)-1H-pyrrolo[3,2-c]pyridine-2-carboxamide]
IC50 [1]: 39.4 nM | IC50 (A2780 cells): 13.5 nM

O=C(NCCCCC1CCN(C(=O)c2ccc3[nH]ccc3c2)CC1)c1ccc2nccn2c1 [N-(4-{1-[(1H-indol-5-yl)carbonyl]piperidin-4-yl}butyl)imidazo[1,2-a]pyridine-6-carboxamide]
IC50 [1]: 19.5 nM | IC50 (A2780 cells): 18.5 nM

O=C(NCCCCC1CCN(C(=O)c2ccc3[nH]ccc3c2)CC1)c1cc2ccncc2s1 [N-(4-{1-[(1H-indol-5-yl)carbonyl]piperidin-4-yl}butyl)thieno[2,3-c]pyridine-2-carboxamide]
IC50 [1]: 42.7 nM | IC50 (A2780 cells): 71.1 nM
